According to US20100210536A1, “USE OF LEPTIN (22-56 ) AS A THERAPEUTIC AGENT” (priority 2007, published 2010):
Where no end group is shown, it is not given here.

What was measured:
MRC-5 cells = assay: Cytotoxicity in MRC-5 cells (CellTiter 96 cell viability); conditions: 6 days incubation
in vitro [1] = conditions: human, MRC-5 cells
MRSA = conditions: 5 micrograms per ml
in vitro [2] = conditions: human, HepG2-2.2.15 cells
in vitro [3] = conditions: human
Pseudomonas aeruginosa = assay type: cell-based; conditions: 5 micrograms per ml
Streptococcus pneumoniae = assay type: cell-based; conditions: 5 micrograms per ml

Row | Molecule | % Cell viability (MRC-5 cells) [%] | viability at 144 h (in vitro [1]) [%] | % inhibition (MRSA) [%] | viability at 144 h, 10 micrograms per ml (in vitro [2]) [%] | viability at 10 micrograms per ml (in vitro [3]) [%] | % inhibition (Pseudomonas aeruginosa) [%] | % inhibition (Streptococcus pneumoniae) [%]
1 | Nc1nc(O)c2ncn(COC(CO)CO)c2n1 [Ganciclovir] | 100 |  |  |  |  |  | 
2 | VPIQKVQDDTKTLIKTIVTRINDISHTQSVSSKQK-OH [Leptin (22-56)] |  | 100 | 0.0 | 100 | 93.5 | 0.0 | 0.0
